In US11618746B2, “Inhibitors of APOL1 and methods of using same” (Vertex Pharmaceuticals Incorporated, priority 2018, dated 2023):

Target: T1, APOL1 G1 Protein (Homo sapiens, UniProt O14791, I384M/S342G)
T1 sequence (O14791 28-398 S342G/I384M): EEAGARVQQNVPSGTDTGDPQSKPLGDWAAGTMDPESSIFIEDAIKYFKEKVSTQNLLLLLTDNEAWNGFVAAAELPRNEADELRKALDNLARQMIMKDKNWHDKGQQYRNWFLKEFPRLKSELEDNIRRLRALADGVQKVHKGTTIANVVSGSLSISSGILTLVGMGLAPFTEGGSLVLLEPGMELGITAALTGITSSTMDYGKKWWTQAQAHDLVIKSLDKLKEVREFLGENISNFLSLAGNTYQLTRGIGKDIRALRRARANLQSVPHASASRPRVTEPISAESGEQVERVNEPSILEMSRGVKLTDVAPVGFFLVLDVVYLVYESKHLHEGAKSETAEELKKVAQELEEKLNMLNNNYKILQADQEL
Assay: Trypanosoma brucei brucei lysis assay using APOL1 recombinant protein (AlamarBlue viability readout)
Format: cell-based
Details: Trypanosoma brucei brucei (Lister 427 VSG 221 bloodstream form) lysis by 0.05 μg/mL recombinant APOL1 G1, 16 hrs
Description: Trypanosoma brucei brucei is a blood stream parasite to which human, gorillas and baboon are immune due to the presence of the APOL1 protein in their HDL particles. The protein is uptaken by the parasite via the TbHpHb receptor located in its flagellar pocket and is bonded by the Hpr protein contained in the HDL particles which triggers the receptor endocytosis by the parasite.
Following endocytosis, the formed vesicle containing the HDL particle matures from early to late endosome, and subsequently to lysosome. The concomitant pH change in the lumen of the vesicle triggers the insertion of the APOL1 protein into the membrane of the late endosome/lysosome and hereby triggers lysosomal membrane premeabilisation and as a further downstream event, trypanosome lysis. Trypanosoma brucei brucei is sensitive to lysis by all three APOL1 variants (G0, G1, and G2).
The Trypanosoma brucei brucei lysis assay is a lysis assay of the parasite using recombinant APOL1 protein variant followed by a fluorescent detection method of viability by the addition of AlamarBlue reagent to the assay well, a general metabolic redox indicator (AlamarBlue assay).
Briefly, the AlamarBlue active compound, the resazurin, a blue, water soluble, non-toxic and cell permeable molecule, which can be followed by absorbance, is reduced by various metabolic pathways into resorufin, a red compound which can be followed by either absorbance or fluorescence. The assay allows the calculation of the percent viability (percent of living Trypanosomes remaining in each well) at the end of a lysis relative to the untreated condition by interpolation of fluorescent values (FLU) on a standard curve with a known amount of seeded trypanosome/well.
Trypanosoma brucei brucei (ATCC, Cat. No. PRA-382) • Lister 427 VSG 221 bloodstream form.
Thaw/Expansion Media (ATCC Medium 2834 Modified HMI-9 Medium)
Equipment • E1-Clip Tip pipette 12 channel adjustable 2-125 μL, Cat. No. 4672070BT • ThermoFisher MultiDrop 384, Cat. No. 5840300 • Multidrop • Agilent Bravo, Cat. No. G5409A • Bravo • SpectraMax M5
Trypanosoma brucei brucei Culture
Step 2, Day 4 • Centrifuge at 800×g for 5 minutes at room temperature. • Resuspend in 1 mL media. • Make a 1:25 fold dilution (10 μL/240 μL media). • Count on a hemocytometer (after adding parasites). • Let sit for 1-2 minutes for the parasites to settle. • Count should be approximately 100 viable motile parasites/16 grid or approximately 25×10^6 parasites/flask. • Passage the parasites by adding 1×10^6 parasites/T75 flask in 20 mL media. • Passage the parasites by adding 2.33×10^6 parasites/T175 flask in 46.6 mL media. • For every T75 flask should make enough for approximately 1.5×384 well assay plates. • For every T175 flask should make enough for approximately 3.8×384 well assay plates.
Step 3. Day 6 • Centrifuge at 800×g for 5 minutes. • Resuspend in 3 mL assay media (No phenol red, no FBS) per 75 starting flask. • Resuspend in 7 mL assay media (No phenol red, no FBS) per 175 flask • Make a 1:25 fold dilution. • Count by hemocytometer. • Every T75 flask set up should have approximately 75×10^6 parasites/flask (verify doubling time=8.7 hrs 1 hr). • Every T175 flask set up should have approximately 175×10^6 parasites/flask (verify doubling time=8.7 hrs±1 hr). • Require 46×10^6 parasites per 384 well plate (at 120,000 parasites per well).
Step 2, Day 2 • Centrifuge at 800×g for 5 minutes at room temperature. • Resuspend in 1 mL media. • Make a 1:25 fold dilution (10 L/240 μL media). • Let sit for 1-2 minutes for the parasites to settle. • Count should be approximately 100 viable motile parasites/16 grid or approximately 8×10^6 parasites per flask. • Passage the parasites by adding 1.25×10^6 parasites per T75 flask in 20 mL media. • For every T75 flask set up should have approximately 1.5×384 well assay plates. • For every T175 flask setup should have approximately 3.8×384 well assay plates. […]

| Structure (SMILES) | IC50 |
| --- | --- |
| O=C(CCc1c(-c2ccc(C(F)F)cc2)[nH]c2ccccc12)N[C@@H]1C(=O)NC[C@H]1O [Compound 131, 3-[2-[4-(difluoromethyl)phenyl]-1H-indol-3-yl]-N-[(3S,4R)-4-hydroxy-2-oxo-pyrrolidin-3-yl]propanamide] | < 250 nM |
| O=C(CCc1c(-c2ccccc2)[nH]c2ccccc12)N[C@@H]1C(=O)NC[C@H]1O [Compound 86] | < 250 nM |
| O=C(CCc1c(-c2ccc(F)cc2)[nH]c2ccc(F)cc12)NC1CCNC1=O (stereo not drawn) [Compound 48] | < 250 nM |
| O=C(CCc1c(-c2ccc(F)cc2)[nH]c2c(F)cc(Cl)cc12)N[C@@H]1C(=O)NC[C@H]1O [Compound 30] | < 250 nM |
| O=C1NC[C@@H](O)[C@@H]1NC(=O)C(F)(F)Cc1c(-c2ccc(F)cc2)[nH]c2c(F)cc(F)cc12 [Compound 95, 3-[5,7-difluoro-2-(4-fluorophenyl)-1H-indol-3-yl]-2,2-difluoro-N-[(3S,4R)-4-hydroxy-2-oxo-pyrrolidin-3-yl]propanamide] | < 250 nM |
| O=C1C[C@@H](NC(=O)CCc2c(-c3ccc(F)cc3)[nH]c3c(F)cc(F)cc23)C(=O)N1 [Compound 16] | 250 to 1000 nM |
| O=C(CCc1c(-c2ccccc2)[nH]c2ccc(F)cc12)N[C@@H]1C(=O)NC[C@H]1O [Compound 51] | < 250 nM |
| O=C(CCc1c(-c2ccccc2)[nH]c2c(F)cccc12)N[C@@H]1C(=O)NC[C@H]1O [Compound 61] | < 250 nM |
| O=C(CCc1c(-c2ccccc2)[nH]c2ccc(F)cc12)N[C@H]1CCNC1=O [Compound 52] | < 250 nM |
| O=C(CCc1c(-c2ccccc2)[nH]c2c(F)cc(F)cc12)N[C@@H]1C(=O)NC[C@H]1O [Compound 26] | < 250 nM |
| Cc1c(F)c(F)cc2c(CCC(=O)N[C@@H]3C(=O)NC[C@H]3O)c(-c3ccc(F)cc3)[nH]c12 [Compound 98, 3-[5,6-difluoro-2-(4-fluorophenyl)-7-methyl-1H-indol-3-yl]-N-[(3S,4R)-4-hydroxy-2-oxo-pyrrolidin-3-yl]propanamide] | < 250 nM |
| Cc1ccc2[nH]c(-c3ccc(Br)cc3)c(CCC(=O)N[C@H]3CCNC3=O)c2c1 [Compound 43, 3-[2-(4-bromophenyl)-5-methyl-1H-indol-3-yl]-N-[(3S)-2-oxopyrrolidin-3-yl]propanamide] | < 250 nM |
| O=C(CCc1c(-c2ccccc2)[nH]c2cc(F)ccc12)N[C@@H]1C(=O)NC[C@H]1O [Compound 109, 3-(6-fluoro-2-phenyl-1H-indol-3-yl)-N-[(3S,4R)-4-hydroxy-2-oxo-pyrrolidin-3-yl]propanamide] | < 250 nM |
| O=C(CCc1c(-c2ccc(Cl)cc2)[nH]c2ccccc12)N[C@@H]1C(=O)NC[C@H]1O [Compound 128, 3-[2-(4-chlorophenyl)-1H-indol-3-yl]-N-[(3S,4R)-4-hydroxy-2-oxo-pyrrolidin-3-yl]propanamide] | < 250 nM |
| O=C(CCc1c(-c2ccc(OC(F)F)cc2)[nH]c2c(F)cc(F)cc12)N[C@@H]1C(=O)NC[C@H]1O [Compound 102] | < 250 nM |
| O=C1C[C@H](NC(=O)CCc2c(-c3ccc(F)cc3)[nH]c3c(F)cc(F)cc23)C(=O)N1 [Compound 5] | 250 to 1000 nM |
| O=C(CCc1c(-c2ccc(F)cc2)[nH]c2c(F)cc(C(F)(F)F)cc12)N[C@@H]1C(=O)NC[C@H]1O [Compound 101, 3-[7-fluoro-2-(4-fluorophenyl)-5-(trifluoromethyl)-1H-indol-3-yl]-N-[(3S,4R)-4-hydroxy-2-oxo-pyrrolidin-3-yl]propanamide] | < 250 nM |
| O=C(CCc1c(-c2ccc(F)cc2)[nH]c2c(F)cc(F)cc12)N[C@H]1C[C@@H](CO)NC1=O [Compound 7] | > 1000 nM |
| N#Cc1ccc(-c2[nH]c3ccccc3c2CCC(=O)N[C@@H]2C(=O)NC[C@H]2O)cc1 [Compound 116, 3-[2-(4-cyanophenyl)-1H-indol-3-yl]-N-[(3S,4R)-4-hydroxy-2-oxo-pyrrolidin-3-yl]propanamide] | < 250 nM |
| O=C(CCc1c(-c2ccc(F)cc2)[nH]c2c(F)c(F)ccc12)N[C@@H]1C(=O)NC[C@H]1O [Compound 58] | < 250 nM |
| CC1C[C@H](NC(=O)CCc2c(-c3ccc(F)cc3)[nH]c3c(F)cc(F)cc23)C(=O)N1 (mixture of isomers) [Compound 6] | 250 to 1000 nM |
| O=C(CCc1c(-c2ccccc2)[nH]c2cc(F)cc(F)c12)N[C@@H]1C(=O)NC[C@H]1O [Compound 85] | < 250 nM |
| O=C(CCc1c(-c2ccc(F)cc2)[nH]c2ccc(O)cc12)N[C@H]1CCNC1=O [Compound 55, 3-[2-(4-fluorophenyl)-5-hydroxy-1H-indol-3-yl]-N-[(3S)-2-oxopyrrolidin-3-yl]propanamide] | > 1000 nM |
| O=C(CCc1c(-c2ccc(F)cc2)[nH]c2c(Cl)cc(F)cc12)N[C@@H]1C(=O)NC[C@H]1O [Compound 36] | < 250 nM |
| O=C(CCc1c(-c2ccc(F)cc2)[nH]c2c(F)ccc(F)c12)N[C@H]1CCNC1=O [Compound 78] | > 1000 nM |
| Cc1c(F)c(F)cc2c(CCC(=O)N[C@@H]3C(=O)NC[C@H]3O)c(-c3ccccc3)[nH]c12 [Compound 99, 3-(5,6-difluoro-7-methyl-2-phenyl-1H-indol-3-yl)-N-[(3S,4R)-4-hydroxy-2-oxo-pyrrolidin-3-yl]propanamide] | < 250 nM |
| Cc1cc(F)c2[nH]c(-c3ccc(F)cc3)c(CCC(=O)N[C@@H]3C(=O)NC[C@H]3O)c2c1 [Compound 29] | < 250 nM |
| O=C(CCc1c(-c2ccc(F)cc2)[nH]c2c(OC(F)F)cc(F)cc12)N[C@@H]1C(=O)NC[C@H]1O [Compound 107] | 250 to 1000 nM |
| O=C(CCc1c(-c2ccccc2)[nH]c2c(F)c(F)ccc12)N[C@@H]1C(=O)NC[C@H]1O [Compound 59] | < 250 nM |
| O=C(CCc1c(-c2ccc(F)cc2)[nH]c2ccc(OCc3ccccc3)cc12)N[C@H]1CCNC1=O [Compound 54, 3-[5-benzyloxy-2-(4-fluorophenyl)-1H-indol-3-yl]-N-[(3S)-2-oxopyrrolidin-3-yl]propanamide] | 250 to 1000 nM |
